A short description of data set [1]: Traditional forced degradation in bulk solution, acid (HCl), nanospray MS. The conditions noted are these: 450 μg/mL. The text has this:
(§1) Particularly, the degradation of three APIs in Leidenfrost droplets is exemplified, under conditions of constant volume achieved by adding make-up solvent automatically via a syringe pump during the levitation period. The data were compared with the degradation of the corresponding bulk material under similar conditions of solvent and temperature. In both droplet and bulk, degradation products are monitored by mass spectrometry and the ratio of products to reactants was used to infer the extent of reaction (Table 1).
(§2) Traditional forced degradation was performed by preparing a stock stress solution of hydrochloric acid or hydrogen peroxide, and a stock solution of the compound of interest (the API). Then the solutions were mixed and allowed to react at a set temperature for a set period of time (FIG. 1A). The composition of the final reaction mixture was analyzed by nanospray MS and the data for the bulk phase experiments are given in Table 1. Likewise, the Leidenfrost reaction mixture was made by the same method, then instead of letting the mixed solution age at a set temperature, it was dropped into a ceramic well which was placed on hot plate held at a temperature of 540° C. to form a much cooler Leidenfrost droplet (FIG. 1B). […] Here, both bulk and Leidenfrost products are analyzed by using nanospray MS.

The nature of data set [2]: Accelerated forced degradation in Leidenfrost droplets, acid (HCl), nanospray MS. Format: physicochemical. The conditions noted are these: 0.5M HCl, 90% propanol-10% H2O, without make-up solvent. How it is done:
The data were compared with the degradation of the corresponding bulk material under similar conditions of solvent and temperature. In both droplet and bulk, degradation products are monitored by mass spectrometry and the ratio of products to reactants was used to infer the extent of reaction (Table 1).
as §2

A short description of data set [3]: Accelerated forced degradation in Leidenfrost droplets, oxidative (H2O2), nanospray MS. Format: physicochemical. The conditions noted are these: 0.3% H2O2, 90% methanol-10% H2O.
Text: as §1, §2

Data set [4] is described as follows: Traditional forced degradation in bulk solution, oxidative (H2O2), nanospray MS. The class given is physicochemical. The conditions noted are these: 45 μg/mL, 0.3% H2O2, 90% methanol-10% H2O.
Text: as §1, §2

Experimental findings from patent US11209411B2, “Methods for analyzing stability of an active pharmaceutical ingredient” (Purdue Research Foundation, priority 2018, dated 2021) are described below.

Molecules are shown by their SMILES.

For the compound `NS(=O)(=O)c1cc2c(cc1Cl)NCNS2(=O)=O` [Hydrochlorothiazide (HCTZ), Hydrochlorothiazide], in data set [1] (0.5M HCl, 90% propanol-10% H2O, bulk 80° C., time to reach Set Ratio 2.5%), the “Bulk Time” value came to 3 h. Moreover, the “Set Ratio (products to reactants, extent of degradation)” value in data set [1] (3 h) is reported as 2.5%^. For the same compound, the “Leidenfrost Time” value in data set [2] (450 μg/mL, Leidenfrost droplet 80° C., time to reach Set Ratio 2.5%) was 40 s. For the same compound, the “Accel. Factor” value in data set [2] (Leidenfrost droplet vs bulk, 80° C.) was approximately 270.
For `CN1CCN(CCCN2c3ccccc3Sc3ccc(C(F)(F)F)cc32)CC1` [Trifluoperazine (TFP), Trifluoperazine], the “Leidenfrost Time” value in data set [3] (45 μg/mL, Leidenfrost droplet 40° C., constant volume, time to reach Set Ratio 3%) turned out to be 180 s. Also, the “Accel. Factor” value in data set [3] (Leidenfrost droplet vs bulk, 40° C.) is on record as approximately 20. Besides, the “Set Ratio (products to reactants, extent of degradation)” value in data set [4] (40° C., reached after 1.5 h in bulk, 180 s in Leidenfrost droplet) stood at 3%. Besides, in data set [4] (bulk 40° C., time to reach Set Ratio 3%), the “Bulk Time” value stood at 1.5 h^.
